According to article PMC7413516, “Antidepressant-like activity and safety profile evaluation of 1H-imidazo[2,1-f]purine-2,4(3H,8H)-dione derivatives as 5-HT1A receptor partial agonists” (PLoS ONE, 2020):
Several values for one entry are separate records, joined by “and”; a condition that tells them apart may be missing. Equal entries are not always repeated. Where two headings read alike, the source gives them in different places.

Assay: Pharmacokinetic study in mice, plasma and brain structures, LC/MS/MS
Format: in vivo, Swiss albino mice
Conditions: 1.25 mg/kg i.p.; for Kp: ratio of AUC values
Protocol: Blood samples from the Swiss albino mice were collected at 0 (pre-dose), 5, 15, 30, 60, 120, 240 and 480 min after a compound administration. The blood samples and brain structures were collected under general anesthesia induced by i.p. injection of 50 mg/kg ketamine plus 8 mg/kg xylazine. The blood samples were taken into heparinized tubes, immediately centrifuged at 1000 × g for 10 min, and plasma was collected. The plasma samples and brain structures were immediately frozen at -30°C and -80°C, respectively.
The plasma and tissue sample pretreatment procedure involved acetonitrile precipitation. A 5 μL aliquot of the IS working solution (100 ng/mL) was added to 50 μL of the collected mouse plasma sample, which was then vortex-mixed for 10 seconds. Thereafter, 200 μL of acetonitrile was added, vortexed during 20 min, and then centrifuged (1000 × g, 10 min). The supernatant (100 μL) was then transferred to insert placed in an autosampler vial, and a 10 μL volume of this was injected onto the HPLC column. Tissue samples were thawed before use, and whole hippocampus, striatum and frontal cortex were weighted and placed in a glass mortar and pestle tissue grinder and homogenized with an appropriate amount of phosphate buffer (pH 7.4) in 1:5 ratio. Afterward, 50 μL of tissue homogenates were transferred to new Eppendorf tubes and spiked with 5 μL of the internal standard working solution. All samples were stored on ice during the preparation process. This was followed by procedures like those described above.
The LC/ESI-MS/MS experiments were performed on an Applied Biosystems/MDS Sciex (Concord, Ontario, Canada) API 2000 triple quadrupole mass spectrometer equipped with an electrospray (ESI) ionization interface. This instrument was coupled to an Agilent 1100 (Agilent Technologies, Waldbronn, Germany) LC system. Data acquisition and processing were accomplished using Sciex Analyst 1.4.2 data collection and integration software.
An XBridge C18 (2.1 x 30 mm, 3.5 μm) analytical column (Waters, Milford, Massachusetts, USA) was used for compound separation. The temperatures of the column thermostat and the autosampler were set at 25°C and 10°C, respectively. The mobile phase consisted of a mixture of acetonitrile with addition of 0.1% formic acid (solvent A) and water with addition of 0.1% formic acid (solvent B) and was set at a flow rate of 0.6 mL/min. Starting amount of solvent A is 10%, isocratic elution from 0 to 3 min, and then gradient up to 90% of solvent A, and maintained to 10 min, and then gradient down to 10% of solvent A, and maintained to 15 min.
The ion source parameters were as follows: ion spray voltage: 5500 V; nebulizer gas (gas 1): 20 psi; turbo gas (gas 2): 25 psi; temperature of the heated nebulizer: 400°C; curtain gas: 40 psi; collision gas: 6 psi. Mass spectra were acquired by SRM with precursor/predominant product ion transitions for each analyte. The mass spectral Q1→Q3 transitions monitored for AZ-853, AZ-861 and for IS (nebivolol), were m/z 453.9→235.1; 504.3→285.1 and 406.2→151.1, respectively. The peak widths of precursor and product ions were set to 0.7 full width half-height. Quantification was done via peak area ratio.
Pharmacokinetic parameters were calculated by a non-compartmental approach from the average concentration values, using Phoenix WinNonlin software (Certara, Princeton, NJ 08540 USA). First order elimination rate constant (λz) was calculated by linear regression of time versus log concentration. Next, the area under the mean serum and tissue concentration versus time curve (AUC0→t) was estimated using the log-linear trapezoidal rule (1), where Ci is the plasma concentration measured at t1.
AUC0→t=∑i=1n((Ci+Ci+1)/2)∙(ti+1−ti). (1)
Area under the first-moment curve (AUMC0→t) was estimated by calculation of the total area under the first-moment curve using the Eq (2), where Ci is the plasma concentration measured at t1. AUMC0→t=∑i=1n((ti∙Ci+ti+1∙Ci+1)/2)∙(ti+1−ti). […]

Cn1c(=O)c2c(nc3n(CCCCN4CCN(c5cccc(C(F)(F)F)c5)CC4)ccn23)n(C)c1=O [AZ-861, 1,3-dimethyl-8-(4-(4-(3-(trifluoromethyl)phenyl)piperazin-1-yl)butyl)-1H-imidazo[2,1-f]purine-2,4(3H,8H)-dione]
t0.5: ca. 1.5 h | t0.5, frontal cortex: 91.6 min | t0.5, hippocampus: 110.4 min | t0.5, striatum: 83 min | t0.5, plasma (1.25 mg/kg): 97 min and 97.5 min | Concentration, plasma (individual animals) (5 min, 1.25 mg/kg): 45.82 ng/mL | Concentration, frontal cortex (individual animals) (15 min, 1.25 mg/kg): 230.57 ng/mL and 280.45 ng/mL and 263.78 ng/mL and 270.14 ng/mL and 226.47 ng/mL | Concentration, hippocampus (individual animals) (15 min, 1.25 mg/kg): 234.13 ng/mL and 378.52 ng/mL and 328.15 ng/mL and 322.19 ng/mL and 317.44 ng/mL | Concentration, plasma (individual animals) (15 min, 1.25 mg/kg): 44.70 ng/mL and 36.90 ng/mL and 42.80 ng/mL and 28.74 ng/mL and 38.15 ng/mL | Concentration, striatum (individual animals) (15 min, 1.25 mg/kg): 389.35 ng/mL and 271.77 ng/mL and 374.54 ng/mL and 325.44 ng/mL and 267.13 ng/mL | Concentration, frontal cortex (individual animals) (30 min, 1.25 mg/kg): 184.45 ng/mL and 218.78 ng/mL and 190.14 ng/mL and 183.24 ng/mL and 219.17 ng/mL | Concentration, hippocampus (individual animals) (30 min, 1.25 mg/kg): 192.35 ng/mL and 319.65 ng/mL and 217.19 ng/mL and 301.16 ng/mL and 245.19 ng/mL | Concentration, plasma (individual animals) (30 min, 1.25 mg/kg): 31.10 ng/mL and 30.60 ng/mL and 22.40 ng/mL and 15.17 ng/mL and 19.56 ng/mL and 30.17 ng/mL | Concentration, striatum (individual animals) (30 min, 1.25 mg/kg): 310.53 ng/mL and 258.57 ng/mL and 322.23 ng/mL and 318.66 ng/mL and 277.19 ng/mL | Concentration, frontal cortex (individual animals) (60 min, 1.25 mg/kg): 97.18 ng/mL and 109.15 ng/mL and 91.75 ng/mL and 83.56 ng/mL and 89.47 ng/mL | Concentration, hippocampus (individual animals) (60 min, 1.25 mg/kg): 110.60 ng/mL and 98.83 ng/mL and 88.50 ng/mL and 94.16 ng/mL and 88.17 ng/mL | Concentration, plasma (individual animals) (60 min, 1.25 mg/kg): 6.60 ng/mL and 4.60 ng/mL and 6.58 ng/mL and 5.72 ng/mL and 4.19 ng/mL | Concentration, striatum (individual animals) (60 min, 1.25 mg/kg): 69.53 ng/mL and 62.19 ng/mL and 51.27 ng/mL and 55.66 ng/mL and 48.45 ng/mL | Concentration, frontal cortex (individual animals) (120 min, 1.25 mg/kg): 41.78 ng/mL and 43.56 ng/mL and 39.11 ng/mL and 40.15 ng/mL and 41.18 ng/mL | Concentration, hippocampus (individual animals) (120 min, 1.25 mg/kg): 51.18 ng/mL and 56.82 ng/mL and 60.95 ng/mL and 47.42 ng/mL and 49.13 ng/mL | Concentration, plasma (individual animals) (120 min, 1.25 mg/kg): 2.36 ng/mL and 2.87 ng/mL and 3.33 ng/mL and 3.12 ng/mL and 1.97 ng/mL | Concentration, striatum (individual animals) (120 min, 1.25 mg/kg): 30.75 ng/mL and 29.92 ng/mL and 21.66 ng/mL and 19.44 ng/mL and 23.17 ng/mL | Concentration, frontal cortex (individual animals) (240 min, 1.25 mg/kg): 18.75 ng/mL and 10.56 ng/mL and 16.25 ng/mL and 9.48 ng/mL | Concentration, hippocampus (individual animals) (240 min, 1.25 mg/kg): 15.35 ng/mL and 24.14 ng/mL and 23.55 ng/mL and 16.56 ng/mL | Concentration, plasma (individual animals) (240 min, 1.25 mg/kg): 0.67 ng/mL and 0.70 ng/mL and 0.34 ng/mL and 0.41 ng/mL and 0.57 ng/mL and 0.66 ng/mL | Concentration, striatum (individual animals) (240 min, 1.25 mg/kg): 4.87 ng/mL and 5.95 ng/mL and 6.85 ng/mL and 4.94 ng/mL | Vd/F (plasma, 1.25 mg/kg): 83 L/kg and 83.4 L/kg | Kp (Swiss albino, mouse, frontal cortex, ip, read-out: Brain structure-to-plasma concentration ratio, frontal cortex (FC/P)): 10.5 | AUC(0-t) (Swiss albino, mouse, frontal cortex, ip, read-out: AUC0→t, frontal cortex (converted)): 363 ng·h/mL | MRT (Swiss albino, mouse, frontal cortex, ip, read-out: MRT, frontal cortex (converted)): 1.54 h | concentration at 5 min (Swiss albino, mouse, frontal cortex, ip, 1.25 mg/kg, 5 min, read-out: Concentration, frontal cortex (Mean)): 355 ng/mL | concentration at 5 min (Swiss albino, mouse, frontal cortex, ip, 1.25 mg/kg, 5 min, read-out: Concentration, frontal cortex (individual animals)): 408 ng/mL | concentration at 15 min (Swiss albino, mouse, frontal cortex, ip, 1.25 mg/kg, 15 min, read-out: Concentration, frontal cortex (Mean)): 251 ng/mL | concentration at 15 min (Swiss albino, mouse, frontal cortex, ip, 1.25 mg/kg, 15 min, read-out: Concentration, frontal cortex (individual animals)): 233 ng/mL | concentration at 30 min (Swiss albino, mouse, frontal cortex, ip, 1.25 mg/kg, 30 min, read-out: Concentration, frontal cortex (Mean)): 201 ng/mL | concentration at 30 min (Swiss albino, mouse, frontal cortex, ip, 1.25 mg/kg, 30 min, read-out: Concentration, frontal cortex (individual animals)): 209 ng/mL | concentration at 60 min (Swiss albino, mouse, frontal cortex, ip, 1.25 mg/kg, 60 min, read-out: Concentration, frontal cortex (Mean)): 95.8 ng/mL | concentration at 60 min (Swiss albino, mouse, frontal cortex, ip, 1.25 mg/kg, 60 min, read-out: Concentration, frontal cortex (individual animals)): 104 ng/mL | concentration at 120 min (Swiss albino, mouse, frontal cortex, ip, 1.25 mg/kg, 120 min, read-out: Concentration, frontal cortex (Mean)): 41 ng/mL | concentration at 120 min (Swiss albino, mouse, frontal cortex, ip, 1.25 mg/kg, 120 min, read-out: Concentration, frontal cortex (individual animals)): 40.3 ng/mL | concentration at 240 min (Swiss albino, mouse, frontal cortex, ip, 1.25 mg/kg, 240 min, read-out: Concentration, frontal cortex (Mean)): 12.8 ng/mL | concentration at 240 min (Swiss albino, mouse, frontal cortex, ip, 1.25 mg/kg, 240 min, read-out: Concentration, frontal cortex (individual animals)): 9.95 ng/mL | concentration at 480 min (Swiss albino, mouse, frontal cortex, ip, 1.25 mg/kg, read-out: Concentration, frontal cortex (Mean)): 2.98 ng/mL | concentration at 480 min (Swiss albino, mouse, frontal cortex, ip, 1.25 mg/kg, read-out: Concentration, frontal cortex (individual animals)): 1.96 ng/mL | Cmax (Swiss albino, mouse, frontal cortex, ip, 1.25 mg/kg, read-out: Cmax, frontal cortex): 355 ng/g | Tmax (Swiss albino, mouse, frontal cortex, ip, 1.25 mg/kg, read-out: tmax, frontal cortex (converted)): 5 min | Kp (Swiss albino, mouse, hippocampus, ip, read-out: Brain structure-to-plasma concentration ratio, hippocampus (H/P)): 12.6 | AUC(0-t) (Swiss albino, mouse, hippocampus, ip, read-out: AUC0→t, hippocampus (converted)): 436 ng·h/mL | MRT (Swiss albino, mouse, hippocampus, ip, read-out: MRT, hippocampus (converted)): 1.78 h | concentration at 5 min (Swiss albino, mouse, hippocampus, ip, 1.25 mg/kg, 5 min, read-out: Concentration, hippocampus (Mean)): 274 ng/mL
